Source: patent US20090182020A1, “SUBSTITUTED BIS(HETERO)AROMATIC N--ETHYLPROPIOLAMIDES AND USE THEREOF FOR PRODUCTION OF MEDICAMENTS” (GRUNENTHAL GMBH, priority 2005, published 2009)

Molecular target: T1, mGluR5 receptor (pig) (Sus scrofa, UniProt I3LUI7)
T1 construct: 450 μg protein from brain homogenate is incubated with 5 nM ^3[H]-MPEP; from tissue; host or cells: pig brain halves without medulla, cerebellum and pons
Assay: [3H]-MPEP bond in the mGluR5 receptor bond assay (pig brain homogenate)
Format: binding
Settings: 5 nM [3H]-MPEP; pig brain homogenate
Method: I. Method for Determining the Inhibition of the [^3H]-MPEP Bond in the mGluR5 Receptor Bond Assay
Pig brain homogenate is produced by homogenisation (Polytron PT 3000, Kinematica AG, 10,000 rpm for 90 seconds) of pig brain halves without medulla, cerebellum and pons in buffer pH 8.0 (30 mM Hepes, Sigma, order no. H3375+1 tablet complete to 100 ml, Roche Diagnostics, order no. 1836145) in the ratio 1:20 (brain weight/volume) and differential centrifugation at 900×g and 40,000×g. In each case, 450 μg protein from brain homogenate is incubated with 5 nM ^3[H]-MPEP (Tocris, order no. […]
Thereafter, the batches are filtered with the help of a Brandel Cell Harvester (Brandel, TYP Robotic 9600) on unifilter plates with glass fibre filter mats (Perkin Elmer, order no. 6005177) and subsequently washed with buffer (as above) 3 times with in each case 250 μl per sample. The filter plates are subsequently dried for 60 min at 55° C. 30 μL Ultima Gold™ scintillator (Packard BioScience, order no. 6013159) is subsequently added per well and the samples are measured after 3 hours on the β-counter (Mikrobeta, Perkin Elmer). The unspecific bond is determined by addition of 10 μM MPEP (Tocris, order no. 1212).

T1 sequence (I3LUI7 19-1212): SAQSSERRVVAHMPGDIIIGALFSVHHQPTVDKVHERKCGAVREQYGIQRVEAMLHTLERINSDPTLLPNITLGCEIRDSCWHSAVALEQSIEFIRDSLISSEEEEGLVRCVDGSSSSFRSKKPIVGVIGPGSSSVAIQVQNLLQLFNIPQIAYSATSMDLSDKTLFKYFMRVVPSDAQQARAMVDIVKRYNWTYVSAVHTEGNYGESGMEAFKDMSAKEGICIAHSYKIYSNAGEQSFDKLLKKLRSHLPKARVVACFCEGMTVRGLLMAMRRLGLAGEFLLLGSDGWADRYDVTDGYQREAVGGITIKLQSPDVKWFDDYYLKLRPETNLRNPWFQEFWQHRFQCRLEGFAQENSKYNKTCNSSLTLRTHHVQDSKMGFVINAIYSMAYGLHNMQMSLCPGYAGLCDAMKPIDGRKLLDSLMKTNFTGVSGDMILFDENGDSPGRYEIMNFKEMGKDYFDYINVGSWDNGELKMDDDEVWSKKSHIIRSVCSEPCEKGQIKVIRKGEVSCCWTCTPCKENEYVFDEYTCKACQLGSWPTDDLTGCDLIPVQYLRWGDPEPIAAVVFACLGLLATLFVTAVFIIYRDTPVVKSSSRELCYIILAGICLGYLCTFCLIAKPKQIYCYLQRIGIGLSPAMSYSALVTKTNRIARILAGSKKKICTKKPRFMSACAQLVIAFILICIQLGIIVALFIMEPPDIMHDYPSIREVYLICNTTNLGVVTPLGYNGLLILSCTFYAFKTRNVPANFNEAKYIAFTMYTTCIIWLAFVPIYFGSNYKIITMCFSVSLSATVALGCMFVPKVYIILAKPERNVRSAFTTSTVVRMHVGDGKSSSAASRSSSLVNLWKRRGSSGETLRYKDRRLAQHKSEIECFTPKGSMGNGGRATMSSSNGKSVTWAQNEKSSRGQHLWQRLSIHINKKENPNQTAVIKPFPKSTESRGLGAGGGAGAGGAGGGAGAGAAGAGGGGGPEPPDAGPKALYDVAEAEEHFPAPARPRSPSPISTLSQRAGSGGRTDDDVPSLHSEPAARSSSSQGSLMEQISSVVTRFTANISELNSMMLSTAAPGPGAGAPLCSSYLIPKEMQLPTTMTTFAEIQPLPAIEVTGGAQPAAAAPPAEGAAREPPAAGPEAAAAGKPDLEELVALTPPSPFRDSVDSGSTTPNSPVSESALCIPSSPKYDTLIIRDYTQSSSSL

Point of comparison: `CN(CCc1cccnc1)C(=O)C#Cc1cccc(Cl)c1` [Example 243, 3-(3-chlorophenyl)-N-methyl-N-(2-(pyridine-3-yl)ethyl)propiolamide], IC50 12 nM. Against it:
- O=C(C#Cc1cccc(Cl)c1)NCCc1ccccc1F [Example 215, 3-(3-chlorophenyl)-N-(2-fluorophenethyl)propiolamide] — within 1.5-fold, 9 nM
- O=C(C#Cc1cccc(Cl)c1)NCCc1cccc(F)c1 [Example 216, 3-(3-chlorophenyl)-N-(3-fluorophenethyl)propiolamide] — the same, 12 nM
- O=C(C#Cc1cccc(Cl)c1)NCCc1ccc(F)cc1 [Example 217, 3-(3-chlorophenyl)-N-(4-fluorophenethyl)propiolamide] — 12-fold higher, 140 nM
- CN(CCc1ccccc1F)C(=O)C#Cc1cccc(Cl)c1 [Example 218, 3-(3-chlorophenyl)-N-(2-fluorophenethyl)-N-methylpropiolamide] — within 1.5-fold, 16 nM
- O=C(C#Cc1cccc(Cl)c1)NCCc1cccc(C(F)(F)F)c1 [Example 219, 3-(3-chlorophenyl)-N-(3-(trifluoromethyl)phenethyl)propiolamide] — 38-fold higher, 450 nM
- CN(CCc1ccc(F)cc1)C(=O)C#Cc1cccc(Cl)c1 [Example 220, 3-(3-chlorophenyl)-N-(4-fluorophenethyl)-N-methylpropiolamide] — within 1.5-fold, 9 nM
- CN(CCc1cccc(F)c1)C(=O)C#Cc1cccc(Cl)c1 [Example 221, 3-(3-chlorophenyl)-N-(3-fluorophenethyl)-N-methylpropiolamide] — 1.5-fold lower, 8 nM
- CN(CCc1cccc(C(F)(F)F)c1)C(=O)C#Cc1cccc(Cl)c1 [Example 222, 3-(3-chlorophenyl)-N-methyl-N-(3-(trifluoromethyl)phenethyl)propiolamide] — 6.2-fold higher, 75 nM
- Cc1ccccc1CCNC(=O)C#Cc1cccc(Cl)c1 [Example 223, 3-(3-chlorophenyl)-N-(2-methylphenethyl)propiolamide] — within 1.5-fold, 13 nM
- Cc1cccc(CCNC(=O)C#Cc2cccc(Cl)c2)c1 [Example 224, 3-(3-chlorophenyl)-N-(3-methylphenethyl)propiolamide] — 3.3-fold higher, 40 nM
- Cc1ccc(CCNC(=O)C#Cc2cccc(Cl)c2)cc1 [Example 225, 3-(3-chlorophenyl)-N-(4-methylphenethyl)propiolamide] — 18-fold higher, 210 nM
- Cc1ccccc1CCN(C)C(=O)C#Cc1cccc(Cl)c1 [Example 226, 3-(3-chlorophenyl)-N-methyl-N-(2-methylphenethyl)propiolamide] — 1.5-fold lower, 8 nM
- Cc1cccc(CCN(C)C(=O)C#Cc2cccc(Cl)c2)c1 [Example 227, 3-(3-chlorophenyl)-N-methyl-N-(3-methylphenethyl)propiolamide] — within 1.5-fold, 15 nM
- Cc1ccc(CCN(C)C(=O)C#Cc2cccc(Cl)c2)cc1 [Example 228, 3-(3-chlorophenyl)-N-methyl-N-(4-methylphenethyl)propiolamide] — 23-fold higher, 280 nM
- O=C(C#Cc1cccc(Cl)c1)NCCn1cccc1 [Example 230, N-(2-(1H-pyrrol-1-yl)ethyl)-3-(3-chlorophenyl)propiolamide] — 16-fold higher, 190 nM
- O=C(C#Cc1cccc(Cl)c1)NCCn1cccn1 [Example 231, N-(2-(1H-pyrazol-1-yl)ethyl)-3-(3-chlorophenyl)propiolamide] — 12-fold higher, 140 nM
- CN(CCn1cccc1)C(=O)C#Cc1cccc(Cl)c1 [Example 233, N-(2-(1H-pyrrol-1-yl)ethyl)-3-(3-chlorophenyl)-N-methylpropiolamide] — 2.6-fold higher, 31 nM
- CN(CCn1cccn1)C(=O)C#Cc1cccc(Cl)c1 [Example 234, N-(2-(1H-pyrazol-1-yl)ethyl)-3-(3-chlorophenyl)-N-methylpropiolamide] — 4.2-fold higher, 51 nM
- O=C(C#Cc1cccc(Cl)c1)NCCc1cccnc1 [Example 235, 3-(3-chlorophenyl)-N-(2-(pyridine-3-yl)ethyl)propiolamide] — 1.7-fold lower, 7 nM
- CN(CCc1ccccn1)C(=O)C#Cc1cccc(Cl)c1 [Example 236, 3-(3-chlorophenyl)-N-methyl-N-(2-(pyridine-2-yl)ethyl)propiolamide] — 2.4-fold higher, 29 nM
- CCN(CCc1ccccc1)C(=O)C#Cc1cccc(Cl)c1 [Example 237, 3-(3-chlorophenyl)-N-ethyl-N-phenethylpropiolamide] — 3.7-fold higher, 44 nM
- CC(C)N(CCc1ccccc1)C(=O)C#Cc1cccc(Cl)c1 [Example 238, 3-(3-chlorophenyl)-N-isopropyl-N-phenethylpropiolamide] — 5.8-fold higher, 70 nM
- O=C(C#Cc1cccc(Cl)c1)N(CCc1ccccc1)C1CC1 [Example 239, 3-(3-chlorophenyl)-N-cyclopropyl-N-phenethylpropiolamide] — 23-fold higher, 280 nM
- COc1ccccc1CCN(C)C(=O)C#Cc1cccc(Cl)c1 [Example 240, 3-(3-chlorophenyl)-N-(2-methoxyphenethyl)-N-methylpropiolamide] — the same, 12 nM
- CC(Cc1ccccc1)N(C)C(=O)C#Cc1cccc(Cl)c1 (stereo not shown) [Example 241, 3-(3-chlorophenyl)-N-methyl-N-(1-phenylpropane-2-yl)propiolamide] — within 1.5-fold, 13 nM
- CC(Cc1ccccc1)NC(=O)C#Cc1cccc(Cl)c1 (stereo not shown) [Example 242, 3-(3-chlorophenyl)-N-(1-phenylpropane-2-yl)propiolamide] — 6-fold lower, 2 nM

Same assay, conditions: 10 μM test compound; 5 nM [3H]-MPEP; 450 μg protein pig brain homogenate; 60 min room temperature

Point of comparison: `COc1ccccc1CCNC(=O)C#Cc1ccc(F)cc1F` [Example 193, 3-(2,4-difluorophenyl)-N-(2-methoxyphenethyl)propiolamide], inhibition at 10 µM 31%. Against it:
- O=C(C#Cc1cccs1)NCCc1ccc(Cl)c(Cl)c1 [Example 103, N-(3,4-dichlorophenethyl)-3-(thiophene-2-yl)propiolamide] — higher, 88%
- N#Cc1cccc(C#CC(=O)NCCc2ccc(Cl)c(Cl)c2)c1 [Example 104, 3-(3-cyanophenyl)-N-(3,4-dichlorophenethyl)propiolamide] — higher, 84%
- O=C(C#Cc1ccc(F)cc1F)NCCc1cccs1 [Example 117, 3-(2,4-difluorophenyl)-N-(2-(thiophene-2-yl)ethyl)propiolamide] — higher, 33%
- O=C(C#Cc1ccccc1F)NCCc1cccs1 [Example 118, 3-(2-fluorophenyl)-N-(2-(thiophene-2-yl)ethyl)propiolamide] — higher, 67%
- COc1cccc(C#CC(=O)NCCc2ccccc2OC)c1 [Example 132, N-(2-methoxyphenethyl)-3-(3-methoxyphenyl)propiolamide] — higher, 83%
- COc1cccc(C#CC(=O)NCCc2ccc(Cl)cc2)c1 [Example 133, N-(4-chlorophenethyl)-3-(3-methoxyphenyl)propiolamide] — higher, 65%
- COc1ccccc1CCNC(=O)C#Cc1ccc(F)c(C)c1 [Example 134, 3-(4-fluoro-3-methylphenyl)-N-(2-methoxyphenethyl)propiolamide] — higher, 77%
- Cc1cc(C#CC(=O)NCCc2ccc(Cl)cc2)ccc1F [Example 135, N-(4-chlorophenethyl)-3-(4-fluoro-3-methylphenyl)propiolamide] — higher, 44%
- COc1ccccc1CCNC(=O)C#Cc1ccccc1 [Example 136, N-(2-methoxyphenethyl)-3-phenylpropiolamide] — higher, 110%
- O=C(C#Cc1ccccc1)NCCc1ccc(Cl)cc1 [Example 137, N-(4-chlorophenethyl)-3-phenylpropiolamide] — higher, 67%
- COc1ccccc1CCNC(=O)C#Cc1cccc(C)c1 [Example 138, N-(2-methoxyphenethyl)-3-m-tolylpropiolamide] — higher, 97%
- Cc1cccc(C#CC(=O)NCCc2ccc(Cl)cc2)c1 [Example 139, N-(4-chlorophenethyl)-3-m-tolylpropiolamide] — higher, 91%
- O=C(C#Cc1ccc(F)cc1)NCCc1ccc(Cl)cc1 [Example 140, N-(4-chlorophenethyl)-3-(4-fluorophenyl)propiolamide] — higher, 53%
- O=C(C#Cc1ccccc1F)NCCc1cccc(Cl)c1 [Example 148, N-(3-chlorophenethyl)-3-(2-fluorophenyl)propiolamide] — higher, 79%
- Cc1ccc(CCNC(=O)C#Cc2ccccc2F)cc1 [Example 149, 3-(2-fluorophenyl)-N-(4-methylphenethyl)propiolamide] — higher, 57%
- O=C(C#Cc1ccccc1F)NCCc1ccc(F)cc1 [Example 151, N-(4-fluorophenethyl)-3-(2-fluorophenyl)propiolamide] — higher, 66%
- COc1ccccc1CCNC(=O)C#Cc1cccs1 [Example 189, N-(2-methoxyphenethyl)-3-(thiophene-2-yl)propiolamide] — higher, 85%
- O=C(C#Cc1cccs1)NCCc1ccc(Cl)cc1 [Example 190, N-(4-chlorophenethyl)-3-(thiophene-2-yl)propiolamide] — higher, 65%
- COc1ccccc1CCNC(=O)C#Cc1cccc(C#N)c1 [Example 191, 3-(3-cyanophenyl)-N-(2-methoxyphenethyl)propiolamide] — higher, 96%
- N#Cc1cccc(C#CC(=O)NCCc2ccc(Cl)cc2)c1 [Example 192, N-(4-chlorophenethyl)-3-(3-cyanophenyl)propiolamide] — higher, 91%
- COc1ccccc1CCNC(=O)C#Cc1ccccc1F [Example 194, 3-(2-fluorophenyl)-N-(2-methoxyphenethyl)propiolamide] — higher, 81%
